Source: article PMC12346198 (Cancers, 2025)
Where two headings read alike, the source gives them in different places.

Tests used:
[1] = system: SNU475; test: CCK-8 cytotoxicity assay, SNU475; type: cell-based, human; settings: 72 h treatment
Procedure: (§1) The cytotoxicity of compounds was determined by the CCK-8 assay (Cell Counting Kit-8, CK04, Dojindo Molecular Technologies, Kumamoto, Japan). Cell lines were plated at 10,000 cells/well in 96-well plates and incubated overnight to allow for adherence (5% CO2, 37 °C). […] Cells were placed back in the incubator for 72 h treatment. CCK-8 reagent was added, and plates were further incubated 1–4 h as directed by the supplier’s instructions. Optical density was measured using a Biotek Synergy H1 plate reader at 450 nm. Primary hepatocytes were plated at 30,000 cells or 50,000 cells/well and maintained according to the technical information bulletin provided by the supplier. Upon treatment, maintenance media were supplemented with 10% FBS and fresh test compound for all subsequent media changes, as directed.

[2] = system: HepG2; test: CCK-8 cytotoxicity assay, HepG2; type: cell-based, human; settings: 72 h treatment
Procedure: as §1

[3] = biological target: T1, AR-SV (Homo sapiens, UniProt P10275); test: AR protein ELISA in SNU475 cells; type: cell-based; settings: 10 µM, 24 hours, AR ELISA (Figure S3A)
T1 sequence (P10275 1-628): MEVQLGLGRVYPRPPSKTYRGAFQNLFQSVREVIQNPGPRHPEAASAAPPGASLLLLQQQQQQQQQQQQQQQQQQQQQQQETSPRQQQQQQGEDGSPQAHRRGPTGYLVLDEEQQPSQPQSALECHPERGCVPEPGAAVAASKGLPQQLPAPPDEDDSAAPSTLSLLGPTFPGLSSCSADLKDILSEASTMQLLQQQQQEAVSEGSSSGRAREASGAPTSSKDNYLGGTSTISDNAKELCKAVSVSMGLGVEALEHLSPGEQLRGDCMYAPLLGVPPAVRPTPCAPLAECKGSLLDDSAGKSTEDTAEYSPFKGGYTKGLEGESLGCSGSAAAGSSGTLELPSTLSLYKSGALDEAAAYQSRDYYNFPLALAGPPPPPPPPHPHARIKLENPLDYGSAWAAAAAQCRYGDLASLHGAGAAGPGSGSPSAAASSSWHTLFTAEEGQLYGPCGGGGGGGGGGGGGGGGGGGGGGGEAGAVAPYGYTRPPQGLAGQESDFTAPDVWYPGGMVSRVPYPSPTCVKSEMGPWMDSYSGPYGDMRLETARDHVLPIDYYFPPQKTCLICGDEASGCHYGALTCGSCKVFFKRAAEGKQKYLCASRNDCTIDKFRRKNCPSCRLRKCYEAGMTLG
Procedure: (§2) Figure S3. […] (A) SNU475 cells were treated with 10 µM of each
(§3) compound for 24 hours before analysis by AR ELISA. (B ) (Left) Cellular invasion assay was performed on SNU475
(§4) Mean + SD One way ANOVA with
(§5) (Right) Cell viability was
(§6) (1 picture or pasted object on this page, not shown here)

[4] = system: SNU475 cells; test: Hollow fiber assay (HFA) model of AR-SV HCC; type: in vivo; settings: BID PO one week; niclosamide 75, valine–niclosamide 106.1, valine–compound #7 87.3, compound #7 62.9 mg/kg; nude mice
From the text: The hollow fiber procedures were based upon those developed by Hollingshead et al. with technical consultation kindly provided by Drs. Joanna Burdette and Dan Lantvit (University of Illinois Chicago, Chicago, IL, USA). […] In order to utilize a PO dosing approach with the HFA, we extended the traditional HFA timeline to establish angiogenesis, as noted in the literature. […] Hollow fibers (KrosFlo Implant Membranes, M138615, Repligen, Waltham, MA, USA) were filled with 3 × 10^6 SNU475 cells/mL per length and heat-sealed into 2 cm lengths on Day −1. On Day 0, three fibers were implanted into 20-week-old male outbred homozygous athymic nude mice (Foxn1^nu/Foxn1^nu, The Jackson Laboratory, Bar Harbor, ME, USA) subcutaneously parallel to the spine. Following a 14-day waiting period to allow for angiogenesis around the fibers, treatment was initiated. […] On Day 21, mice were euthanized and hollow fibers were explanted. The MTT assay was performed according to the KrosFlo Implant Membrane protocol utilizing Thiazolyl Blue Tetrazolium Bromide (M2128, MilliporeSigma, Burlington, MA, USA).

[5] = system: SNU423; test: CCK-8 cytotoxicity assay, SNU423; type: cell-based; settings: Homo sapiens, SNU-423, 72 h treatment
Procedure: as §1

[6] = system: THLE-2; test: CCK-8 cytotoxicity assay, THLE-2; type: cell-based; settings: Homo sapiens, 72 h treatment
Procedure: as §1

[7] = Single-dose IV and PO pharmacokinetics in mice; type: in vivo, male C57BL/6 mice
Procedure: The in-life study and quantitative analysis of plasma samples using LC/MS were performed at Charles River Laboratories, Inc. (Wilmington, MA, USA).

[8] = system: Primary Male Hepatocytes; test: CCK-8 cytotoxicity assay, primary male hepatocytes; type: cell-based; settings: 72 h treatment
Procedure: as §1

[9] = Plasma stability, human plasma; type: in vitro ADME
Procedure: (§7) Samples were taken at 0, 30, 60, 120, 180, and 360 min to quantitate the disappearance of the valine conjugates and appearance of a cleaved parent. The matrix stability assay in plasma and the quantitative analysis of samples by UV-VIS HPLC were performed according to the standard protocol at Charles River Laboratories, Inc. (Wilmington, MA, USA).

[10] = Plasma stability, murine plasma; type: in vitro ADME, mouse
Procedure: as §7

[11] = 40 mg/kg dose PO; listed as niclosamide; cited from earlier work
[12] = system: SNU475 cells; test: Cellular invasion assay, SNU475; type: cell-based, human; settings: 1 µM and 10 µM, 48 h of treatment
Procedure: The BioCoat Matrigel invasion assay was performed according to the manufacturer’s instructions (BioCoat Matrigel Invasion Chambers, 354480, Corning, Corning, NY, USA). AR-negative clones and parental lines (SNU475 and HCCLM3) were hormone-deprived in phenol red-free RPMI1640 with 5% csFBS (±Pen-Strep) for 24 h. A total of 40,000 cells were suspended in a well insert in 0.5 mL of phenol red-free medium without csFBS over a well of 0.75 mL phenol red-free medium with 5% csFBS as a chemoattractant and incubated for 24 h. Invaded cells were fixed in 4% paraformaldehyde and stained with 0.1% crystal violet in 20% methanol. Cells in 10 different and non-overlapping fields of each membrane were photographed and counted. The Fluorometric QCM™ 24-Well Cell Invasion Assay (ECM 554, MilliporeSigma, Burlington, MA, USA) was executed as per the manufacturer’s protocol using 1.25 × 10^5 cells in 250 μL of serum-free medium and incubated for 24–72 h. Following cell lysis and staining with CyQuant GR Dye, fluorescence was measured in a plate reader using a 480/520 nm filter set.
as §2, §3, §4, §5, §6

[13] = system: SNU475 cells; test: Cell viability under invasion assay conditions; type: cell-based, human; settings: 1 µM
Procedure: as §2, §3, §4, §5, §6

[14] = IV, 2 mg/kg (valine conjugates 2 mg/kg EQV)
[15] = IV, 2 mg/kg (valine conjugates 2 mg/kg EQV), non-compartmental analysis
[16] = PO, 40 mg/kg (valine conjugates 40 mg/kg EQV)
[17] = male, C57BL/6, mouse, plasma, iv, 2 mg/kg, IV, 2 mg/kg (valine conjugates 2 mg/kg EQV), analyte = dosed compound, non-compartmental analysis, read-out: AUCall, Geo Mean
[18] = male, C57BL/6, mouse, plasma, iv, 2 mg/kg, IV, 2 mg/kg (valine conjugates 2 mg/kg EQV), read-out: Cmax, Geo Mean
[19] = male, C57BL/6, mouse, plasma, po, 40 mg/kg, PO, 40 mg/kg (valine conjugates 40 mg/kg EQV), analyte = dosed compound, non-compartmental analysis, read-out: AUCall, Geo Mean
[20] = male, C57BL/6, mouse, plasma, po, 40 mg/kg, PO, 40 mg/kg (valine conjugates 40 mg/kg EQV), read-out: Cmax, Geo Mean
[21] = male, C57BL/6, mouse, plasma, IV, 2 mg/kg (valine conjugates 2 mg/kg EQV), read-out: Tmax, Geo Mean
[22] = male, C57BL/6, mouse, plasma, PO, 40 mg/kg (valine conjugates 40 mg/kg EQV), read-out: Tmax, Geo Mean
[23] = male, C57BL/6, mouse, plasma, single IV dose, 2 mg/kg or molar equivalent, read-out: Systemic clearance following an IV dose (converted)
[24] = male, C57BL/6, mouse, in vivo, iv, 2 mg/kg
[25] = male, C57BL/6, mouse, in vivo, po, 40 mg/kg

| SMILES | IC50 [1] [nM] | IC50 ([1]; Homo sapiens, SNU-475, 72 h) [nM] | IC50 ([2]; Homo sapiens, HepG2, 72 h) [nM] | Decrease of AR protein levels compared to enzalutamide and sorafenib [3] | Cell viability within hollow fibers (MTT assay) [4] | IC50 [5] [nM] | IC50 [6] [nM] | HL_Lambda_z, Geo Mean [7, 14] [h] | IV: Clobs, Geo Mean [7, 15] [L/h] | HL_Lambda_z, Geo Mean [7, 16] [h] | PO: Cl_Fobs, Geo Mean [7, 16] [L/h] | AUC [7, 17] [µM·h] | Cmax [7, 18] [µM] | AUC [7, 19] [µM·h] | Cmax [7, 20] [µM] | Tmax [7, 21] [min] | Tmax [7, 22] [min] | clearance [7, 23] [mL/min] | IC50 ([8]; Hepatocyte, 72 h) [nM] | also measured |
| --- | --- | --- | --- | --- | --- | --- | --- | --- | --- | --- | --- | --- | --- | --- | --- | --- | --- | --- | --- | --- |
| O=C(Nc1ccc(C(F)(F)F)cc1Cl)c1cc(Cl)ccc1O [compound #7] | 6600 | 4000 | 450 | more effectively decrease AR protein levels | no differences in cell viability | 280 | 310 | 4.85 | 0.04 | 3.58 | 0.21 | 3.7 | 6.98 | 13 | 5.79 | 4.8 | 15 | 0.667 | > 30000 | Expected plasma levels for up to 8 h post-dose ([7]; linearly scaled from PK data, BID 75 mg/kg niclosamide, 105.7 mg/kg valine–niclosamide, 87.3 mg/kg valine–compound #7, 62.9 mg/kg compound #7): 0.86 µM; AUC ([7]; male, C57BL/6, mouse, plasma, po, 40 mg/kg, PO 40 mg/kg of the parent compound, read-out: AUCall following an oral dose of the unconjugated compound): 13 µM·h; Cmax ([7]; male, C57BL/6, mouse, plasma, po, 40 mg/kg, PO 40 mg/kg of the parent compound, read-out: Cmax following an oral dose of the unconjugated compound): 5.78 µM |
| CC(C)[C@H](N)C(=O)OCCOCn1cnc2c(=O)[nH]c(N)nc21 [valacyclovir] |  |  |  |  |  |  |  |  |  |  |  |  |  |  |  |  |  |  |  | Formation of the cleaved parent ([9]; 360 min): readily detectable acyclovir; Percentage of pro-drug remaining intact ([9]; 6 h (360 min)): 66.4%; Formation of the cleaved parent ([10]; 360 min): readily detectable acyclovir; Percentage of pro-drug remaining intact ([10]; 6 h (360 min)): 37.7% |
| O=C(Nc1ccc([N+](=O)[O-])cc1Cl)c1cc(Cl)ccc1O [Niclosamide, niclosamide, reference compound] | 1330 | 1300 | 600 |  | no differences in cell viability | 250 | 370 |  |  |  |  |  |  |  |  |  |  |  | 7200 | Plasma niclosamide concentration 4 h after oral administration [11]: roughly 0.10 µM; SNU475 invasion [12]: decreased invasion; Cell viability at 48 h [13]: not impacted; Expected plasma levels for up to 8 h post-dose ([7]; C57BL/6, mouse, in vivo): approximately 0.2 µM; PO: Cl_Fobs, Geo Mean ([7]; male, C57BL/6, mouse, in vivo): 0.78 L/h; Tmax [7, 24]: 4.8 min; clearance [7, 24]: 1.33 mL/min; Cmax ([7]; male, C57BL/6, mouse, in vivo, iv, 2 mg/kg, Cmax, Geo Mean): 6.03 µM; AUCall of parent following an oral dose of its valine conjugate [7, 25]: 0.8 µM·h; Tmax [7, 25]: 25.2 min; AUC ([7]; male, C57BL/6, mouse, in vivo, po, 40 mg/kg, AUCall following an oral dose of the unconjugated compound): 3.25 µM·h; Cmax ([7]; male, C57BL/6, mouse, in vivo, po, 40 mg/kg, Cmax following an oral dose of the unconjugated compound): 1.65 µM; Cmax ([7]; male, C57BL/6, mouse, in vivo, po, 40 mg/kg, Cmax, Geo Mean): 1.65 µM; IC50 [8]: 7160 nM |
| O=C(Nc1ccc(C(F)(F)F)cc1)c1cc(Cl)ccc1O [compound #11] | 7200 |  | 1900 | more effectively decrease AR protein levels |  | 580 | 560 | 0.96 | 0.03 | 2.68 | 0.35 | 5.06 | 11.3 | 7.98 | 6.08 | 4.8 | 25.2 | 0.5 | 9500 | IC50 ([1]; listed as Compound #11): 890 nM; IC50 ([2]; listed as Compound #11): 1860 nM; AUC ([7]; male, C57BL/6, mouse, plasma, po, 40 mg/kg, single PO dose, 40 mg/kg or molar equivalent, analyte = dosed compound, read-out: AUCall following an oral dose): 7.98 µM·h; IC50 ([8]; listed as Compound #11): 9470 nM |
